Here are results for one molecule from publication PMC12140054, “Small glycomimetic antagonists of the cytomegalovirus glycoprotein UL141 prevent binding to TRAIL death receptor” (The Journal of Biological Chemistry, 2025).

For this experiment, the target named is T1, HCMV UL141 (Human cytomegalovirus, UniProt Q6RJQ3).
T1 construct: we expressed and purified the full-length recombinant UL141 (amino acids 30–300); made in house
Kind of experiment: biochemical. The format is binding. The following applies: for pKd: KD. The protocol: To prepare HCMV UL141 for binding studies, biotinylation was performed using the BiotinTag Micro Biotinylation Kit (Sigma-Aldrich). Purified UL141 protein (50 μg in 50 μl) was mixed with 50 μl of BiotinTag reaction buffer provided in the kit. Sulfo-NHS-Biotin reagent was freshly prepared by dissolving the vial contents in 1 ml of sterile water. A calculated volume of the biotin reagent was added to achieve a 20:1 M excess of biotin to protein. The reaction mixture was incubated for 30 min at room temperature with gentle mixing to ensure efficient labeling. Following incubation, unreacted biotin was removed using the desalting column included in the kit. The biotinylated UL141 protein was eluted in 50 mM Hepes, pH 7.5, 150 mM NaCl. Biotin incorporation was verified using a colorimetric biotin quantification assay (e.g., HABA assay). The biotinylated protein was then quantified spectrophotometrically using a NanoDrop instrument and concentrated to the desired level for Biacore or ELISA binding studies. The biotinylated protein was stored at 4 °C for short-term use or −80 °C for long-term storage to maintain stability.
The sensor surface of an SA chip (Cytiva) was preconditioned with HBS-EP buffer (10 mM Hepes, 150 mM NaCl, 3 mM EDTA, 0.005% Tween-20) to stabilize the baseline and remove any loosely bound streptavidin. Before use, the buffer was filtered through a 0.2 μm polystyrene filter and degassed under vacuum for 10 min to eliminate air bubbles. Biotinylated HCMV UL141 was immobilized on the SA chip, maintaining biotinylation at 0.5 to 1.5 mol per mole of protein. Excess biotin was removed via gel filtration. UL141 was injected at 30 μl/min, achieving maximum immobilization (4000–6000 RU), followed by washing with running buffer. Residual unbound proteins were optionally removed with a 2 M NaCl pulse. To ensure optimal SPR signal detection, which depends on the analyte mass bound to the ligand, relatively high amounts of ligand were immobilized on the sensor chip to achieve a significant response signal upon binding of the small compound. […] Regeneration of the chip surface, when necessary, was performed using 5 mM NaOH. Control injections of zero concentrations and duplicate injections of selected concentrations were included to validate surface regeneration. […]

[1] abbreviates: UL141 immobilized, substance as analyte, 1:1 Langmuir model.
Setting [2] is: UL141 immobilized, substance as analyte, 1:1 Langmuir model, listed as cmp 18.

pKd: −log10 of the molar value. Several values for one entry are separate records, joined by “and”; a condition that tells them apart may be missing. Equal entries are not always repeated.

T1 sequence (Q6RJQ3 30-300): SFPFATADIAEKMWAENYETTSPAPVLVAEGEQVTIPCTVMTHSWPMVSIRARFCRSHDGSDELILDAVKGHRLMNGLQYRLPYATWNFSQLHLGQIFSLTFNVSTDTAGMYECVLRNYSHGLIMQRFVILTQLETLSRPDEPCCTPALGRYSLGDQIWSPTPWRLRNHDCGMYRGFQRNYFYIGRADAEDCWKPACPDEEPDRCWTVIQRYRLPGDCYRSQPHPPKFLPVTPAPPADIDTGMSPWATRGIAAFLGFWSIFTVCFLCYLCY

For orientation: pKd means the Kd on a negative log10 scale, so that one unit is a factor of ten. One may read the koff as a measure of how fast the partners let go of each other. High values mean fast dissociation, low ones slow dissociation. For orientation: kon means the second-order rate constant of association. Higher therefore signals faster complex formation. Turning to `CCC1C(O)C(O)CN1Cc1ccc(I)cc1` (stereo not shown) [Compound 18], the pKd was 5.53 (UL141 immobilized (ligand), substance in solution (analyte), 1:1 Langmuir model, 25 °C); 5.53 and 5.54 (binding to UL141, SPR). Moreover, the Rmax (UL141 immobilized, substance as analyte) was found to be 19. The koff is 0.157 s⁻¹ under setting [1] and “(1.57 ± 0.039) × 10^−1 s^−1” under setting [2]. In addition, the kon is, setting by setting: under setting [1], 53600 M⁻¹ s⁻¹; under setting [2], “(5.36 ± 0.003) × 10^4 M^−1s^−1”.
